One experiment has as its system K562 cells. Put plainly: Assay for proliferation inhibitory activity of K562 cells. The following applies: Homo sapiens, 72 h, CCK-8, read-out: K562 cell proliferation inhibition IC50. The format is cell-based. On the procedure:
Test Example 4 Assay for Proliferation Inhibitory Activity of K562 Cells
The K562 cell line can be purchased from the American Type Culture Collection (ATCC).
The K562 cells in a good growth state were added to a centrifuge tube with the cell density adjusted to 3×10^4/mL, and seeded on a 96-well plate (100 μL/well). The cells were cultured overnight in a cell incubator, the compound was loaded using a nanoliter pipettor to allow the final compound concentration to be 10000 nM to 4.6 nM, 2 replicate wells were set and control was set.

The next experiment has as its target T1, KRAS-G12C/SOS1 (Homo sapiens, UniProt Q07889).
T1 sequence (Q07889 564-1049): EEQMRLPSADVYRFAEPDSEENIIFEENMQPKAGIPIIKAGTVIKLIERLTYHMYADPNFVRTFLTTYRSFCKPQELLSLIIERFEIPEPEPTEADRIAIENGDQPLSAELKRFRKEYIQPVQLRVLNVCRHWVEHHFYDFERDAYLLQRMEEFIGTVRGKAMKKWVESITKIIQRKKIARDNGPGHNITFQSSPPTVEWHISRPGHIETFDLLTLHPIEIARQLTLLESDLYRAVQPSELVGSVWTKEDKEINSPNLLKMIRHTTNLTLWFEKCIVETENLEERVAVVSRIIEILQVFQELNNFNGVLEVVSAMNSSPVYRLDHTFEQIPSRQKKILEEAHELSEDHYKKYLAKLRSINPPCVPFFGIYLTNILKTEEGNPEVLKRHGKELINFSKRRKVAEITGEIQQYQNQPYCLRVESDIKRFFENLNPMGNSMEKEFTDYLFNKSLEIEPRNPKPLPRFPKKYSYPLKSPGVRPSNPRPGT
Put plainly: biochemical.

For another experiment, the target named is T2, SOS1cat / KRAS G12C (Homo sapiens, UniProt Q07889).
T2 sequence (Q07889 564-1049): T1 sequence (Q07889 564-1049)
Briefly: Guanine nucleotide exchange test (HTRF). The format is biochemical. The following applies: SOS1cat-mediated loading of EDA-GTP-DY-647P1 on His-KRAS G12C, 20° C.; read-out: Nucleotide conversion of HTRF IC50. How it is done: Test Example 2 Guanine Nucleotide Exchange Test
This test quantitatively investigates the ability of SOS to mediate KRAS activation. KRAS G12C with a His tag was added to the system, anti-His antibody labeled with lanthanide Eu was combined with the system, then auxiliary protein SOS1cat and GTP analogue EDA-GTP-DY-647P1 with fluorophore were added thereto, the GTP analogue with fluorophore was loaded on KRAS G12C with the assistance of the auxiliary protein, and then energy resonance transfer occurred between Anti-6HS-Cryptate (FRET donor) and EDA-GTP-DY-647P1 (FRET acceptor).
However, after pretreatment with SOS1 inhibitor compounds, the ability of SOS1 to bind and mediate KRAS activation was weakened, and the ability of FRET between donor and acceptor was weakened.
Test buffer was prepared with the following components: HEPES pH 7.4: 20 mM; NaCl: 150 mM; MgCl2: 0.5 mM; DTT: 2 mM; BSA: 0.05%; and Igepal: 0.0025%.
KRAS G12C working solution, SOS1cat working solution and blank control solution were prepared with the test buffers; wherein the KRAS G12C working solution contained 100 nM His-KRAS G12C and 2 nM […]; the SOS1cat working solution contained 20 nM SOS1cat and 200 nM EDA-GTP-DY-647P1; and the blank control solution contained 100 nM EDA-GTP-DY-647P1.
The whole test procedures were completed at 20° C.

Molecules are shown by their SMILES.

With `[2H]C(C)(Nc1nc(C)nc2cnc(P3(=O)CCN(S(C)(=O)=O)CC3)cc12)c1cccc(C(F)(F)F)c1F` (stereo not drawn) [Example 25], the figures for the IC50 in the experiment on K562 cells and against KRAS-G12C/SOS1 were 247 nM and 86 nM, respectively.
Consider `Cc1nc(N[C@H](C)c2cccc(C(F)(F)F)c2F)c2cc(P3(=O)CCN(S(C)(=O)=O)CC3)ncc2n1` [Example 19], for which the values for the IC50 in the experiment with K562 cells and against KRAS-G12C/SOS1 were 206 nM and 41 nM, respectively.
In the case of `Cc1nc(N[C@H](C)c2cccc(C(F)F)c2F)c2cc(P3(=O)CCN(C4COC4)CC3)ncc2n1` [Example 51], the figures for the IC50 in the experiment on K562 cells and against KRAS-G12C/SOS1 were 282 nM and 100 nM, respectively.
With `Cc1nc(N[C@H](C)c2cccc(C(F)F)c2F)c2cc(P3(=O)CCN(CC(=O)N(C)C)CC3)ccc2n1` [Example 57], the IC50 in the experiment with K562 cells amounted to 2170 nM; at KRAS-G12C/SOS1 it was 204 nM.
Turning to `Cc1nc(N[C@H](C)c2cccc(C(F)(F)F)c2F)c2cc(P3(=O)CCOCC3)nc(C#N)c2n1` [Example 41], the IC50 with K562 cells is 570 nM; on KRAS-G12C/SOS1, 180 nM.
In the case of `Cc1nc(N[C@H](C)c2cccc(C(F)(F)F)c2)c2cc(P3(=O)CCN(C)CC3)ncc2n1` [Example 49], the values for the IC50 on SOS1cat / KRAS G12C and with K562 cells were 1470 nM and 2150 nM, respectively.
As to `CNCc1ccccc1-c1csc([C@@H](C)Nc2nc(C)nc3cnc(P4(=O)CCN(C(=O)C5CC5)CC4)cc23)c1` [Example 54], the IC50 was found to be 486 nM at SOS1cat / KRAS G12C and 84 nM with K562 cells.
On to `Cc1nc(N[C@H](C)c2cc(N)cc(C(F)(F)F)c2)c2cc(P(C)(C)=O)c(OCF)cc2n1` [Example 46], for which the IC50 at SOS1cat / KRAS G12C amounted to 498 nM; in the experiment with K562 cells, 491 nM.
As to `Cc1nc(N[C@H](C)c2cccc(C(F)F)c2F)c2cc(P3(=O)CCOCC3)cc(F)c2n1` [Example 39], the IC50 was 561 nM in the experiment on K562 cells and 103 nM at KRAS-G12C/SOS1.
In the same order, the values of `C[C@@H](Nc1ncnc2cnc(P3(=O)CCN(S(C)(=O)=O)CC3)cc12)c1cccc(C(C)(F)F)c1F` [Example 64] are 281 nM and 64 nM.
For `COc1cc2ncnc(N[C@H](C)c3cccc(C(F)F)c3F)c2cc1P1(=O)CCN(S(C)(=O)=O)CC1` [Example 29], the IC50 in the experiment on K562 cells came to 320 nM; on KRAS-G12C/SOS1, 63 nM.
In the case of `CC(=O)N1CCP(=O)(c2ccc3nc(CF)nc(N[C@H](C)c4cccc(C(F)F)c4F)c3c2)CC1` [Example 31], the values for the IC50 in the experiment with K562 cells and against KRAS-G12C/SOS1 were 513 nM and 129 nM, respectively.
For the molecule `[2H]C([2H])([2H])Oc1cc2nc(C)nc(N[C@H](C)c3cc(N)cc(C(F)(F)F)c3)c2cc1P(C)(C)=O` [Example 47], the IC50 on SOS1cat / KRAS G12C turned out to be 573 nM; in the experiment on K562 cells, 440 nM.
Regarding `Cc1nc(N[C@H](C)c2cc(N)cc(C(F)(F)F)c2)c2cc(P(C)(C)=O)c(OC(F)F)cc2n1` [Example 45], the IC50 on SOS1cat / KRAS G12C came to 694 nM; in the experiment on K562 cells it was 1080 nM.
Take `CC(=O)N1CCP(=O)(c2cc3c(N[C@H](C)c4cccc(C(F)F)c4F)nc(CF)nc3cc2F)CC1` [Example 32]: the IC50 with K562 cells was 155 nM; against KRAS-G12C/SOS1, 90 nM.
As to `COc1cc2nc(C)nc(N[C@H](C)c3cccc(C(F)(F)F)c3C)c2cc1P1(=O)CCOCC1` [Example 67], the IC50 in the experiment on K562 cells was determined as 264 nM; against KRAS-G12C/SOS1 it was 71 nM.
As to `Cc1nc(N[C@H](C)c2cccc(C(F)F)c2F)c2cc(P3(=O)CCOCC3)ncc2n1` [Example 35], the IC50 in the experiment with K562 cells amounted to 574 nM; on KRAS-G12C/SOS1 it was 156 nM.
In the same order, the values of `COc1cc2nc(C)nc(N[C@H](C)c3cccc(C(F)(F)CO)c3)c2cc1P1(=O)CCOCC1` [Example 70] are 257 nM and 44 nM.
For the molecule `Cc1nc(N[C@H](C)c2cccc(C(F)F)c2F)c2cc(P3(=O)CCOCC3)c(F)cc2n1` [Example 38], the results for the IC50 in the experiment on K562 cells and at KRAS-G12C/SOS1 were 477 nM and 115 nM, respectively.
Regarding `C[C@@H](Nc1nc(CF)nc2cnc(P3(=O)CCN(S(C)(=O)=O)CC3)cc12)c1cccc(C(F)(F)F)c1F` [Example 24], the IC50 in the experiment with K562 cells turned out to be 177 nM.
Take `COc1cc2nc(C)nc(N[C@H](C)c3cccc(C(F)F)c3F)c2cc1P1(=O)CCN(S(C)(=O)=O)CC1` [Example 63]: the results for the IC50 in the experiment on K562 cells and at KRAS-G12C/SOS1 were 137 nM and 38 nM, respectively.
For the molecule `COc1cc2nc(C)nc(N[C@H](C)c3cccc(C(F)(F)F)c3F)c2cc1P1(=O)CCOCC1` [Example 68], the IC50 stood at 720 nM in the experiment on K562 cells and 90 nM against KRAS-G12C/SOS1.
As to `COc1cc2nc(CF)nc(N[C@H](C)c3cccc(C(F)F)c3F)c2cc1P1(=O)CCN(C(C)=O)CC1` [Example 30], the figures for the IC50 with K562 cells and against KRAS-G12C/SOS1 were 302 nM and 68 nM, respectively.
The corresponding values for `COc1cc2nc(C)nc(N[C@H](C)c3cccc(C(C)(F)F)c3F)c2cc1P1(=O)CCOCC1` [Example 69] are 310 nM and 49 nM.
Consider `Cc1nc(N[C@H](C)c2cc(N)cc(C(F)(F)F)c2C)c2cc(P3(=O)CCN(C(=O)C(C)(C)F)CC3)ncc2n1` [Example 60], for which the IC50 at SOS1cat / KRAS G12C is 433 nM; with K562 cells, 30 nM.
In the case of `Cc1nc(N[C@H](C)c2cccc(C(F)F)c2F)c2cc(P3(=O)CCN(CC#N)CC3)ccc2n1` [Example 56], the figures for the IC50 in the experiment with K562 cells and on KRAS-G12C/SOS1 were 507 nM and 88 nM, respectively.
`COCCN1CCP(=O)(c2cc3c(N[C@H](C)c4cccc(C(F)(F)F)c4)nc(C)nc3cn2)CC1` [Example 48]: the IC50 came to 895 nM on SOS1cat / KRAS G12C and 1570 nM in the experiment with K562 cells.
Regarding `COc1cc2ncnc(N[C@H](C)c3cccc(C(F)F)c3F)c2cc1P1(=O)CCN(C(C)=O)CC1` [Example 28], the IC50 stood at 239 nM with K562 cells and 50 nM against KRAS-G12C/SOS1.
The corresponding values for `Cc1nc(N[C@H](C)c2cccc(C(F)(F)F)c2F)c2cc(P3(=O)CCOCC3)ccc2n1` [Example 37] are 362 nM and 97 nM.
As for `Cc1nc(N[C@H](C)c2cccc(C(F)F)c2F)c2cc(P3(=O)CCOCC3)ccc2n1` [Example 36], the IC50 turned out to be 346 nM in the experiment with K562 cells and 94 nM against KRAS-G12C/SOS1.
As to `Cc1nc(N[C@H](C)c2cccc3c(F)coc23)c2cc(P3(=O)CCN(S(C)(=O)=O)CC3)ccc2n1` [Example 61], the IC50 came out at 421 nM in the experiment on K562 cells and 63 nM against KRAS-G12C/SOS1.
The corresponding values for `CC(=O)N1CCP(=O)(c2ccc3nc(Cl)nc(N[C@H](C)c4cccc(C(F)F)c4F)c3c2)CC1` [Example 33] are 250 nM and 64 nM.
As for `COc1cc2nc(C)nc(N[C@H](C)c3cccc(C(F)F)c3C)c2cc1P1(=O)CCOCC1` [Example 66], the IC50 in the experiment with K562 cells worked out at 271 nM; against KRAS-G12C/SOS1, 79 nM.
For the molecule `COc1cc2nc(C)nc(N[C@H](C)c3cccc(C(F)(F)C(C)(C)O)c3)c2cc1P1(=O)CCOCC1` [Example 71], the results for the IC50 in the experiment with K562 cells and on KRAS-G12C/SOS1 were 139 nM and 35 nM, respectively.
In the case of `Cc1nc(N[C@H](C)c2cccc3c2OCC3(F)F)c2cc(P3(=O)CCN(S(C)(=O)=O)CC3)ncc2n1` [Example 22], the IC50 with K562 cells is 836 nM; on KRAS-G12C/SOS1, 63 nM.
As to `CCP(=O)(CC)c1cc2c(N[C@H](C)c3cccc(C(F)F)c3F)nc(C)nc2cc1OC` [Example 34], the IC50 against KRAS-G12C/SOS1 came out at 612 nM.
Take `Cc1nc(N[C@H](C)c2cccc(C(F)F)c2F)c2cc(P3(=O)CCN(C(=O)N(C)C)CC3)ncc2n1` [Example 55]: the IC50 is 280 nM with K562 cells and 87 nM against KRAS-G12C/SOS1.
As to `Cc1nc(N[C@H](C)c2cccc(C(F)(F)F)c2C)c2cc(P3(=O)CCN(S(C)(=O)=O)CC3)ccc2n1` [Example 62], the values for the IC50 in the experiment on K562 cells and at KRAS-G12C/SOS1 were 155 nM and 45 nM, respectively.
The corresponding values for `Cc1nc(N[C@H](C)c2cccc(C(F)(F)F)c2C)c2cc(P3(=O)CCOCC3)c(=O)n(C)c2n1` [Example 40] are 514 nM and 179 nM.
As for `Cc1nc(N[C@H](C)c2cc(N)cc(C(F)(F)F)c2)c2cc(P(C)(C)=O)c(O)cc2n1` [Example 44], the IC50 at SOS1cat / KRAS G12C turned out to be 724 nM.
At KRAS-G12C/SOS1, `Cc1nc(N[C@H](CF)c2cccc(C(F)(F)F)c2C)c2cc(P3(=O)CCN(S(C)(=O)=O)CC3)ccc2n1` [Example 26] came in with an IC50 of 103 nM.

For the origin of these results see patent US12565511B2, “SOS1 inhibitor containing phosphorus” (Chia Tai Tianqing Pharmaceutical Group Co., Ltd., priority 2020, dated 2026).
